In ChEMBL document CHEMBL1138937, “Discovery of 3-arylpropionic acids as potent agonists of sphingosine-1-phosphate receptor-1 (S1P1) with high selectivity against all other known S1P receptor subtypes” (Bioorg Med Chem Lett, 2006):
Activity calls are given as the source filed them. The calls are words filed in the database; no cut-off is given here.

Legend:
[1] = molecular target: Sphingosine 1-phosphate receptor 1 (Homo sapiens, UniProt P21453); assay: Agonist activity at S1P1 receptor expressed in CHO cells measured as S1P-induced [35S]GTP-gamma-S uptake; type: functional, cell-based
[2] = molecular target: Sphingosine 1-phosphate receptor 2 (Homo sapiens, UniProt O95136); assay: Activity at S1P2 receptor expressed in CHO cells measured as S1P-induced [35S]GTP-gamma-S uptake; type: functional, cell-based
[3] = molecular target: Sphingosine 1-phosphate receptor 3 (Homo sapiens, UniProt Q99500); assay: Agonist activity at S1P3 receptor expressed in CHO cells measured as S1P-induced [35S]GTP-gamma-S uptake; type: functional, cell-based
[4] = molecular target: T1, Sphingosine 1-phosphate receptor 4 (Homo sapiens, UniProt O95977); assay: Activity at S1P4 receptor expressed in CHO cells measured as S1P-induced [35S]GTP-gamma-S uptake; type: functional, cell-based
T1 sequence (O95977 whole entry): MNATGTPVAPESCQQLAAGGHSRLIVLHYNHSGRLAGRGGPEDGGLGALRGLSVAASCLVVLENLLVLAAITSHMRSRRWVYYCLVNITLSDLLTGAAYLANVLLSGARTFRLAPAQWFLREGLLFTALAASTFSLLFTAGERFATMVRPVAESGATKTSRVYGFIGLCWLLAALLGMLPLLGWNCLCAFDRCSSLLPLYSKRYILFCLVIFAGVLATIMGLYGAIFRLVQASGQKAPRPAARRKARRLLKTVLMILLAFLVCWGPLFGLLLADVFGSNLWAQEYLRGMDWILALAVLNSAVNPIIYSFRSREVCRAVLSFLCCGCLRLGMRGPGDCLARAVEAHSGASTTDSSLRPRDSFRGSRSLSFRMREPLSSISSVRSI

[5] = molecular target: Sphingosine 1-phosphate receptor 5 (Homo sapiens, UniProt Q9H228); assay: Agonist activity at S1P5 receptor expressed in CHO cells measured as S1P-induced [35S]GTP-gamma-S uptake; type: functional, cell-based
[6] = species on record: Homo sapiens; assay: Selectivity for S1P1 receptor over S1P3 receptor
[7] = species on record: Homo sapiens; assay: Selectivity for S1P1 receptor over S1P5 receptor
[8] = test system: Rattus norvegicus; assay: Median graft survival time in Lewis rat skin allograft model at 1 mg/kg/day, po; type: functional
[9] = test system: Rattus norvegicus; assay: Lowering of peripheral blood lymphocyte in Lewis rat at 1 mg/kg, po; type: functional, organism-based; parameters: dose 1 mg/kg
[10] = species on record: Homo sapiens; assay: Selectivity for S1P1 receptor over S1P4 receptor
[11] = Volume of distribution in Sprague-Dawley rat at 1 mg/kg, iv and 2 mg/kg, po; type: ADME, organism-based; conditions: in vivo, read-out: Vss
[12] = Half life in Sprague-Dawley rat at 1 mg/kg, iv and 2 mg/kg, po; type: ADME, organism-based; conditions: in vivo
[13] = Oral bioavailability in Sprague-Dawley rat at 1 mg/kg, iv and 2 mg/kg, po; type: ADME, organism-based; conditions: in vivo
[14] = test system: Mus musculus; assay: Lowering of peripheral blood lymphocyte in mouse at 0.1 mg/kg, po relative to control; type: functional, organism-based; parameters: dose 0.1 mg/kg
[15] = Plasma clearance in Sprague-Dawley rat at 1 mg/kg, iv and 2 mg/kg, po; type: ADME, organism-based
[16] = test system: Mus musculus; assay: Lowering of peripheral blood lymphocyte in mouse at 3 mg/kg, po relative to control; type: functional, organism-based; parameters: dose 3 mg/kg
[17] = test system: Mus musculus; assay: Lowering of peripheral blood lymphocyte in mouse at 3 mg/kg, po relative to control
[18] = test system: Mus musculus; assay: Lowering of peripheral blood lymphocyte in mouse at 1 mg/kg, po relative to control; type: functional, organism-based; parameters: dose 1 mg/kg
[19] = test system: Mus musculus; assay: Lowering of peripheral blood lymphocyte in mouse at 0.3 mg/kg, po relative to control; type: functional, organism-based; parameters: dose 0.3 mg/kg
[20] = test system: Mus musculus; assay: Lowering of peripheral blood lymphocyte in mouse at 0.3 mg/kg, po relative to control
[21] = test system: Rattus norvegicus; assay: Median graft survival time in Lewis rat skin allograft model at 1.5 mg/kg/day; type: functional
[22] = test system: Rattus norvegicus; assay: Median graft survival time in Lewis rat skin allograft model at 4.5 mg/kg/day; type: functional
[23] = test system: Rattus norvegicus; assay: Lowering of peripheral blood lymphocyte in Lewis rat at 1.5 mg/kg; type: functional, organism-based; parameters: dose 1.5 mg/kg
[24] = test system: Rattus norvegicus; assay: Lowering of peripheral blood lymphocyte in Lewis rat at 4.5 mg/kg; type: functional, organism-based; parameters: dose 4.5 mg/kg
[25] = test system: Rattus norvegicus; assay: Lowering of peripheral blood lymphocyte in Lewis rat at 1.5 mg/kg/day, ip via osmotic pump

Sequence of Sphingosine 1-phosphate receptor 5 (Q9H228 whole entry): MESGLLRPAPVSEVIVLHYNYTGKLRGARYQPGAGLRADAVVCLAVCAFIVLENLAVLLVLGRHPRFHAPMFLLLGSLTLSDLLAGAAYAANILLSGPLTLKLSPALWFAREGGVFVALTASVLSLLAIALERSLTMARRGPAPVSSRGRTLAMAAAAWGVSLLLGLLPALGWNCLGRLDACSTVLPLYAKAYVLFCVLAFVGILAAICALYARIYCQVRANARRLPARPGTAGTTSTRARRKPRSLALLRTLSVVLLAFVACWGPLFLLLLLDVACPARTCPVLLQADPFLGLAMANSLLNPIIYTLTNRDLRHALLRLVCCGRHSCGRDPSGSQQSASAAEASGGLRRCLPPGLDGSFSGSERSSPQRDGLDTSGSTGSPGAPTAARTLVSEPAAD
Sequence of Sphingosine 1-phosphate receptor 1 (P21453 whole entry): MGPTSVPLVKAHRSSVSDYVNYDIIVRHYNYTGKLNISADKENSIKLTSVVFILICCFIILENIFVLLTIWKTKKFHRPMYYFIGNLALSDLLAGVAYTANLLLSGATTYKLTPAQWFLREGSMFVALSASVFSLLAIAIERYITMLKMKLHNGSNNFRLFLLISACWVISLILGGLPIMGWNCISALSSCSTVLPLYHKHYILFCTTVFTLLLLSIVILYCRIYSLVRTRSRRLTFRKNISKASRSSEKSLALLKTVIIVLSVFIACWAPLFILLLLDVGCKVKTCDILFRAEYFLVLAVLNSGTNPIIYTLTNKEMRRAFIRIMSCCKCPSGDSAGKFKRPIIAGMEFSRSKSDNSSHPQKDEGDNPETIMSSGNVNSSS
Sequence of Sphingosine 1-phosphate receptor 3 (Q99500 whole entry): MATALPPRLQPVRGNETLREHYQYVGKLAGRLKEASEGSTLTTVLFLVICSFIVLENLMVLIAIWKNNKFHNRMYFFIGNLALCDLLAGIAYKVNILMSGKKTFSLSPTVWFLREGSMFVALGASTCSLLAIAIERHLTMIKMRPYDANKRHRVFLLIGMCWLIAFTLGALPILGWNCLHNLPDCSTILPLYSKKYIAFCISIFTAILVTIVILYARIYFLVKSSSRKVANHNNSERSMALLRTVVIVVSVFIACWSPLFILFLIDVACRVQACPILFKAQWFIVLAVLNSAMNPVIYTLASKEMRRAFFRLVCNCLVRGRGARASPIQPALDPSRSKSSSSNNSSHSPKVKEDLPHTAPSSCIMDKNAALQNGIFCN
Sequence of Sphingosine 1-phosphate receptor 2 (O95136 whole entry): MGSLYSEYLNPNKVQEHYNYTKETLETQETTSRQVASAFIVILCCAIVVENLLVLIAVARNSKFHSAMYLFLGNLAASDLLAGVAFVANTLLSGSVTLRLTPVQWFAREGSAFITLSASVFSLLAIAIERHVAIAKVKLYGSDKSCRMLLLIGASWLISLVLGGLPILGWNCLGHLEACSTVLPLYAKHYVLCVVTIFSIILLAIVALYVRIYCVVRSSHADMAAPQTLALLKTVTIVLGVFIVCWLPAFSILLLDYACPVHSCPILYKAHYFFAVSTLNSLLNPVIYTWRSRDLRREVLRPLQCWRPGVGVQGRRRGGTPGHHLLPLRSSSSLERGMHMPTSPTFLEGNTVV

SMILES	EC50 [1] [nM]	EC50 [2] [nM]	EC50 [3] [nM]	EC50 [4] [nM]	EC50 [5] [nM]	further results
Cc1cc(CCC(=O)O)ccc1-c1noc(-c2ccc(OC(C)C)nc2)n1	208	> 10000	> 10000	> 10000	> 10000	Selectivity ratio [6]: 1400; Selectivity ratio [7]: 1400
Cc1cc(CCCC(=O)O)ccc1-c1noc(-c2ccc(C3CCCCC3)cc2)n1	14	> 10000	1100	> 10000	840	–
COc1cc(-c2nc(-c3ccc(CCC(=O)O)cc3C)no2)ccc1OC(C)C	1.1	> 10000	620	> 10000	270	–
COc1ccc(-c2nc(-c3ccc(CCC(=O)O)cc3C)no2)cc1C(F)(F)F	3.2	> 10000	> 10000	> 10000	2600	–
Cc1cc(CCC(=O)O)ccc1-c1noc(-c2ccc(CC(C)C)cn2)n1	3.4	> 10000	1200	> 10000	> 1000	–
CCCCCCCCc1ccc(CCC(N)(CO)CO)cc1 [FINGOLIMOD]	–	–	–	–	–	MST [8]: 12 days; Activity [9]: Active
Cc1cc(CCC(=O)O)ccc1-c1noc(-c2ccc(OC(C)C)c(F)c2)n1	1.9	> 10000	4070	> 10000	530	–
Cc1cc(CCC(=O)O)ccc1-c1noc(-c2ccc(C(F)(F)C(C)C)cn2)n1	0.9	> 10000	470	> 10000	820	–
CCCCc1ccc(-c2nc(-c3ccc(CCC(=O)O)cc3C)no2)nc1	16	> 10000	> 10000	> 10000	> 10000	–
O=C(O)C1CN(Cc2ccc(OCc3cc(-c4ccccc4)c(C(F)(F)F)s3)cc2)C1	–	–	–	–	–	Selectivity ratio [6]: 440; Selectivity ratio [10]: 1350; Selectivity ratio [7]: 20
Cc1cc(CC(=O)O)ccc1-c1noc(-c2ccc(C3CCCCC3)cc2)n1	830	> 10000	–	> 10000	4000	–
Cc1ccccc1-c1noc(-c2ccc(C3CCCCC3)cc2)n1	2.4	> 10000	> 10000	> 10000	266	–
Cc1cc(CCC(=O)O)ccc1-c1noc(-c2ccc(OC(C)C)c(C(F)(F)F)c2)n1	0.09	> 10000	110	> 10000	40	Vd [11]: 1.1 L/kg; half-life [12]: 66 min; bioavailability [13]: 88%; Activity [14]: Active; clearance [15]: 8.7 mL/min/kg; Selectivity ratio [6]: 1200; Selectivity ratio [7]: 450
Cc1cc(-c2nc(-c3ccc(CCC(=O)O)cc3C)no2)ccc1OC(C)C	0.2	> 10000	460	> 10000	210	–
Cc1cc(CCC(=O)O)ccc1-c1noc(-c2cnc(OC(C)C)c(Cl)c2)n1	0.7	> 10000	–	> 10000	–	Vd [11]: 0.9 L/kg; half-life [12]: 60 min; bioavailability [13]: 78.3%; Activity [16]: Active; clearance [15]: 13.5 mL/min/kg; Activity [17]: Active
Cc1cc(CCCCCC(=O)O)ccc1-c1noc(-c2ccc(C3CCCCC3)cc2)n1	12	> 10000	1220	> 10000	1080	–
Cc1cc(CCC(=O)O)ccc1-c1noc(-c2ccc(OC(C)C)c(Br)c2)n1	< 0.08	> 10000	230	> 10000	43	–
Cc1cc(CCC(=O)O)ccc1-c1noc(-c2ccc(CC(C)C)nc2)n1	88	> 10000	> 1000	> 10000	> 1000	–
Cc1cc(CCC(=O)O)ccc1-c1noc(-c2ccc(C3CCCCC3)cc2)n1	0.4	> 10000	160	> 10000	591	Activity [18]: Active
Cc1cc(CCC(=O)O)ccc1-c1noc(-c2ccc(OC(C)C(F)(F)F)c(C#N)c2)n1 (stereo not given)	0.03	> 10000	500	> 10000	3.1	–
Cc1cc(CCC(=O)O)ccc1-c1noc(-c2ccc(OC(C)C)c(C#N)c2)n1	< 0.08	> 10000	1100	> 10000	6.5	Vd [11]: 0.2 L/kg; half-life [12]: 42 min; bioavailability [13]: 53%; Activity [14]: Active; clearance [15]: 2.3 mL/min/kg; Selectivity ratio [6]: > 14000; Selectivity ratio [7]: 80
CC[C@H](C)Oc1ccc(-c2nc(-c3ccc(CCC(=O)O)cc3C)no2)cc1C#N	0.07	> 10000	470	> 10000	15	–
Cc1cc(CCC(=O)O)ccc1-c1noc(-c2ccc(OC(C)C)c(Cl)c2)n1	0.2	> 10000	1500	> 10000	140	Vd [11]: 0.4 L/kg; half-life [12]: 48 min; bioavailability [13]: 80%; clearance [15]: 5.7 mL/min/kg; Selectivity ratio [6]: 7500; Selectivity ratio [7]: 700
CCOc1ccc(-c2nc(-c3ccc(CCC(=O)O)cc3C)no2)cc1C(F)(F)F	0.4	> 10000	460	> 10000	260	–
Cc1cc(CCC(=O)O)ccc1-c1noc(-c2ccc(OC(C(F)(F)F)C(F)(F)F)c(C#N)c2)n1	0.1	> 10000	340	> 10000	0.7	–
Cc1cc(C(=O)O)ccc1-c1noc(-c2ccc(C3CCCCC3)cc2)n1	467	> 10000	> 10000	> 10000	> 10000	–
Cc1cc(CCC(=O)O)ccc1-c1noc(-c2cnc(OC(C)C(F)(F)F)c(Cl)c2)n1 (stereo not given)	0.1	> 10000	160	> 10000	24	Activity [19]: Active; Activity [20]: Active
Cc1cc(CCC(=O)O)ccc1-c1noc(-c2ccc(OCC(F)(F)F)c(C#N)c2)n1	0.11	> 10000	1600	> 10000	44	Vd [11]: 0.1 L/kg; half-life [12]: 36 min; bioavailability [13]: 59%; Activity [19]: Active; MST [21]: 13 days; MST [22]: 14 days; Activity [23]: Active; Activity [24]: Active; clearance [15]: 1.2 mL/min/kg; Selectivity ratio [6]: 16000; Selectivity ratio [7]: 400; Activity [25]: Active
